For this test, the target named is T1, Akt1 (Homo sapiens, UniProt P31749, S473D).
T1 construct: The version of Akt used in these studies lacks the pleckstrin homology (PH) domain
Put plainly: Akt1 kinase assay, fluorescence polarization (IMAP). The class given is biochemical. As for the experimental part:
The Akt1 kinase assay is based on the measurement of fluorescence polarization using IMAP technology (Molecular Devices Corporation #R8062). Two microliters of inhibitor compounds diluted to a concentration of 10 millimolar are added to column 2 of a polypropylene 96-well plate containing 98 microliters of 100% DMSO; the wells in columns 3-12 contain 60 microliters of 100% DMSO. The various test compounds are serially diluted 1:3 across the plate by pipetting 30 microliters of compounds into wells containing 60 microliters of 100% DMSO. Column 12 receives DMSO only and is used as a negative control for inhibition. The components of the wells are mixed and 15 microliters of each well are transferred to another 96-well plate already containing 60 microliters of reaction buffer (RB: 10 mM Tris-HCl, pH 7.5, 10 mM MgCl2, 0.1 mM EGTA, 0.01% Triton-X100 (Sigma #X-100), freshly added 1 mM DTT). After mixing, the […] reactions are assembled. First, five microliters of the above compound/reaction buffer mixture is transferred to the bottom of a 96-well black polystyrene reaction plate (Costar, #3694). Next, ten microliters of a solution containing 4 micromolar ATP and 40 nanomolar fluorescent-labeled Crosstide (Tamara-labeled […] peptide) are added. Then, 5 microliters (1.5 nanograms) of Akt protein in RB are added. The version of Akt used in these studies lacks the pleckstrin homology (PH) domain, and contains an aspartic acid residue in place of a serine residue in position 473 within the Akt1 hydrophobic motif. The Akt1 protein contains a polyhistidine tag at the amino terminus and is prephosphorylated on threonine at position 308 in order to activate latent kinase activity. Once the reaction components and inhibitors are assembled, the plates are gently tapped, covered with foil, and then incubated at ambient temperature for 30 minutes. IMAP beads (Molecular Devices) are then added (60 microliters of a 1:400 dilution of beads in RB). Plates are read on a Victor Plate Reader with the following settings: CW lamp filter: 544 nm, emission filter: 615 nm. Control values from wells lacking Akt protein are subtracted from the gross readings, and IC50 values are calculated using XLDA.

The mark [1] stands for this setting: Table 3, read-out: Avg Akt kinase, μM (50% inhibition).
Setting [2] is: Table 1, concentration bins, read-out: Concentration Range at which exemplary compounds of formula I inhibit Akt kinase activity.

Like-named read-outs stand apart in the source and are kept apart here.

T1 sequence (P31749 118-480 S473D limits assumed, species assumed): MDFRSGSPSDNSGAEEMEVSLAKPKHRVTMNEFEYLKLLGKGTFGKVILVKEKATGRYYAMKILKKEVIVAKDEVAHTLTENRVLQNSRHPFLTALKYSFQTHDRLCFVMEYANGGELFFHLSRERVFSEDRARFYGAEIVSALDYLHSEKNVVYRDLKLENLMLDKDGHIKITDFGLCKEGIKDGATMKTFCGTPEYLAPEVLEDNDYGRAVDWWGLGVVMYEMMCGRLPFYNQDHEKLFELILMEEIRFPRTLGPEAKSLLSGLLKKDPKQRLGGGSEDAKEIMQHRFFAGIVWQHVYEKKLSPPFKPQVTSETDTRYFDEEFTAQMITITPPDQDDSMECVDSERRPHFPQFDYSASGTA

As for “3-{[(4-chlorophenyl)amino]methyl}-1-(1H-pyrrolo[2,3-b]pyridin-4-yl)pyrrolidin-3-amine [Example 17]”, under setting [1], the IC50 was found to be 0.331 µM.

For `CCc1c[nH]c2ncnc(N3CC[C@](N)(CNc4cc(C)on4)C3)c12` [Example 1, N—(((S)-3-amino-1-(5-ethyl-7H-pyrrolo[2,3-d]pyrimidin-4-yl)pyrrolidin-3-yl)methyl)-5-methylisoxazol-3-amine], the IC50 runs as follows: under setting [2], 0.0101 to 0.1 µM; under setting [1], 0.0154 µM. Take `Cc1c[nH]c2ncnc(N3CCC(N)(CNc4cccc(C(F)(F)F)c4F)C3)c12` (stereo not drawn) [Example 3]: the IC50 under setting [2] lay within 0.00025 to 0.0025 µM and the IC50 under setting [1] was determined as 0.0012 µM. The like results for `N#Cc1c[nH]c2ncnc(N3CCC(N)(CNc4ccc(Cl)cc4)C3)c12` (stereo not drawn) [Example 4, 4-{3-amino-3-[(4-chloro-phenylamino)-methyl]-pyrrolidin-1-yl}-7H-pyrrolo[2,3-d]pyrimidine-5-carbonitrile] were, in that order, 0.0101 to 0.1 µM and 0.041 µM.

In the case of `COC(=O)c1ccccc1NCC1(N)CCN(c2ncnc3[nH]nc(C)c23)C1` (stereo not drawn) [Example 5, 2-{[3-Amino-1-(3-methyl-1H-pyrazolo[3,4-d]pyrimidin-4-yl)-pyrrolidin-3-ylmethyl]-amino}-benzoic acid methyl ester], the IC50 under setting [2] lay in the range of 0.101 to 10 µM and the IC50 under setting [1] was 0.394 µM.

With `NC1(CNc2cccc(Oc3ccccc3)c2)CCN(c2ncnc3[nH]cc(Cl)c23)C1` (stereo not drawn) [Example 6, 1-(5-Chloro-7H-pyrrolo[2,3-d]pyrimidin-4-yl)-3-[(3-phenoxy-phenylamino)-methyl]-pyrrolidin-3-ylamine], the IC50 under setting [2] fell in the range of 0.0101 to 0.1 µM and the IC50 under setting [1] was 0.0134 µM.

For the molecule `N#Cc1n[nH]c2ncnc(N3CCC(N)(CNc4cccc(Cl)c4F)C3)c12` (stereo not drawn) [Example 7, 4-(3-amino-3-((3-chloro-2-fluorophenylamino)methyl)pyrrolidin-1-yl)-1H-pyrazolo[3,4-d]pyrimidine-3-carbonitrile], the IC50 is, setting by setting: under setting [2], 0.0101 to 0.1 µM; under setting [1], 0.0523 µM. As for `N#Cc1n[nH]c2ncnc(N3CCC(N)(CNc4cccc(Cl)c4)C3)c12` (stereo not drawn) [Example 8, 4-{3-Amino-3-[(3-chloro-phenylamino)-methyl]-pyrrolidin-1-yl}-1H-pyrazolo[3,4-d]pyrimidine-3-carbonitrile], the IC50 is 0.101 to 10 µM under setting [2] and 0.249 µM under setting [1]. For `CCc1c[nH]c2ncnc(N3CCC(N)(CNc4cccc(C(F)(F)F)c4)C3)c12` (stereo not drawn) [Example 9], the IC50 was 0.00025 to 0.0025 µM under setting [2] and 0.002 µM under setting [1]. In the same order, the values of `Cc1ccn2ncnc(N3CCC(N)(CNc4cccc(Cl)c4Cl)C3)c12` (stereo not drawn) [Example 10, 3-{[(2,3-dichlorophenyl)amino]methyl}-1-(5-methylpyrrolo[2,1-f][1,2,4]triazin-4-yl)pyrrolidin-3-amine] are 0.00251 to 0.01 µM and 0.003 µM. Consider `N#Cc1c[nH]c2nccc(N3CCC(N)(CNc4ccccc4Oc4ccccc4)C3)c12` (stereo not drawn) [Example 11, 4-(3-amino-3-{[(2-phenoxyphenyl)amino]methyl}pyrrolidin-1-yl)-1H-pyrrolo[2,3-b]pyridine-3-carbonitrile], for which, under setting [2], the IC50 lay within 0.00251 to 0.01 µM.

For `Cc1c[nH]c2ncnc(N3CCC(N)(CNc4ccc(S(=O)(=O)NCc5ccccc5)cc4)C3)c12` (stereo not drawn) [Example 12, 4-({[3-amino-1-(5-methyl-7H-pyrrolo[2,3-d]pyrimidin-4-yl)pyrrolidin-3-yl]methyl}amino)-N-benzylbenzenesulfonamide], the IC50 under setting [2] was 0.0101 to 0.1 µM and the IC50 under setting [1] amounted to 0.0105 µM.

Turning to `Cc1c[nH]c2ncnc(N3CC[C@](N)(CNc4cccc(C(F)(F)F)c4)C3)c12` [Example 13, (3S)-1-(5-methyl-7H-pyrrolo[2,3-d]pyrimidin-4-yl)-3-({[3-(trifluoromethyl)phenyl]amino}-methyl)pyrrolidin-3-amine], the IC50 under setting [2] was in the range of 0.00025 to 0.0025 µM and the IC50 under setting [1] came out at 0.00226 µM. The like results for `NC1(CNc2cccc(C(F)(F)F)c2)CCN(c2ncnc3[nH]cnc23)C1` (stereo not drawn) [Example 14, 1-(9H-purin-6-yl)-3-({[3-(trifluoromethyl)phenyl]amino}-methyl)pyrrolidin-3-amine] were, in that order, 0.101 to 10 µM and 0.108 µM.

`Cc1c[nH]c2ncnc(N3CCC(N)(CNc4ccccc4S(=O)(=O)N4CC[C@@H](F)C4)C3)c12` (stereo partly drawn) [Example 15, 3-{[(2-{[(3R)-3-fluoropyrrolidin-1-yl]sulfonyl}phenyl)amino]methyl}-1-(5-methyl-7H-pyrrolo[2,3-d]pyrimidin-4-yl)pyrrolidin-3-amine]: the IC50 runs as follows: under setting [2], 0.0101 to 0.1 µM; under setting [1], 0.0154 µM. The like results for `Cc1c[nH]c2ncnc(N3CCC(N)(CNc4ccc(CC(N)=O)cc4)C3)c12` (stereo not drawn) [Example 16, 2-[4-({[3-amino-1-(5-methyl-7H-pyrrolo[2,3-d]pyrimidin-4-yl)pyrrolidin-3-yl]methyl}amino)phenyl]-acetamide] were, in that order, 0.0101 to 0.1 µM and 0.0143 µM. As for `Cc1c[nH]c2ncnc(N3CC[C@](N)(CNc4ccc(Cl)cc4)C3)c12` [Example 18, (3S)-3-{[(4-chlorophenyl)amino]methyl}-1-(5-methyl-7H-pyrrolo[2,3-d]pyrimidin-4-yl)pyrrolidin-3-amine], the IC50 is, setting by setting: under setting [2], 0.00025 to 0.0025 µM; under setting [1], 0.002 µM. In the same order, the values of `COC(=O)c1ccccc1NCC1(N)CCN(c2ncnc3[nH]cc(C)c23)C1` (stereo not drawn) [Example 19] are 0.00251 to 0.01 µM and 0.01 µM. In the same order, the values of `Cc1c[nH]c2ncnc(N3CCC(N)(CNc4ccccc4Oc4ccccc4)C3)c12` (stereo not drawn) [Example 20, 1-(5-methyl-7H-pyrrolo[2,3-d]pyrimidin-4-yl)-3-{[(2-phenoxyphenyl)amino]methyl}-pyrrolidin-3-amine] are 0.0101 to 0.1 µM and 0.0155 µM. In the same order, the values of `Cc1c[nH]c2ncnc(N3CCC(N)(CNc4cccc(Cl)c4F)C3)c12` (stereo not drawn) [Example 21, 3-{[(3-chloro-2-fluorophenyl)amino]methyl}-1-(5-methyl-7H-pyrrolo[2,3-d]pyrimidin-4-yl)pyrrolidin-3-amine] are 0.00251 to 0.01 µM and 0.00553 µM. For `Cc1c[nH]c2ncnc(N3CCC(N)(CNc4ccc(C#N)c(Cl)c4)C3)c12` (stereo not drawn) [Example 22, 4-({[3-amino-1-(5-methyl-7H-pyrrolo[2,3-d]pyrimidin-4-yl)pyrrolidin-3-yl]methyl}amino)-2-chlorobenzonitrile], the IC50 was 0.0101 to 0.1 µM under setting [2] and 0.0161 µM under setting [1]. The like results for `Cc1c[nH]c2ncnc(N3CCC(N)(CNc4cccc(C(F)(F)F)c4)C3)c12` (stereo not drawn) [Example 23, 1-(5-methyl-7H-pyrrolo[2,3-d]pyrimidin-4-yl)-3-({[3-(trifluoromethyl)phenyl]amino}-methyl)pyrrolidin-3-amine] were, in that order, 0.00251 to 0.01 µM and 0.00669 µM.

As to `Cc1c[nH]c2ncnc(N3CCC(N)(CNc4ccccc4N4CCCCC4)C3)c12` (stereo not drawn) [Example 24, 1-(5-methyl-7H-pyrrolo[2,3-d]pyrimidin-4-yl)-3-{[(2-piperidin-1-ylphenyl)amino]methyl}pyrrolidin-3-amine], the IC50 under setting [2] lay in the range of 0.0101 to 0.1 µM and the IC50 under setting [1] was 0.0108 µM.

Regarding `Cc1c[nH]c2ncnc(N3CCC(N)(CNc4cccc(OC(F)(F)F)c4)C3)c12` (stereo not drawn) [Example 25, 1-(5-methyl-7H-pyrrolo[2,3-d]pyrimidin-4-yl)-3-({[3-(trifluoromethoxy)phenyl]amino}methyl)pyrrolidin-3-amine], the IC50 is 0.0101 to 0.1 µM under setting [2] and 0.0145 µM under setting [1]. For the molecule `Cc1c[nH]c2ncnc(N3CCC(N)(CNc4cccc(Cl)c4Cl)C3)c12` (stereo not drawn) [Example 26, 3-{[(2,3-dichlorophenyl)amino]methyl}-1-(5-methyl-7H-pyrrolo[2,3-d]pyrimidin-4-yl)pyrrolidin-3-amine], the IC50 under setting [2] lay within 0.00025 to 0.0025 µM and the IC50 under setting [1] came to 0.002 µM. In the case of `Cc1c[nH]c2ncnc(N3CCC(N)(CNc4ccccc4C(=O)NCc4ccccc4)C3)c12` (stereo not drawn) [Example 27, 2-({[3-amino-1-(5-methyl-7H-pyrrolo[2,3-d]pyrimidin-4-yl)pyrrolidin-3-yl]methyl}amimo)-N-benzylbenzamide], the IC50 under setting [2] was 0.101 to 10 µM and the IC50 under setting [1] is 5.29 µM. Take `Cc1c(F)cccc1NCC1(N)CCN(c2ncnc3[nH]cc(C)c23)C1` (stereo not drawn) [Example 28, 3-{[(3-fluoro-2-methylphenyl)amino]methyl}-1-(5-methyl-7H-pyrrolo[2,3-d]pyrimidin-4-yl)pyrrolidin-3-amine]: the IC50 is, setting by setting: under setting [2], 0.00251 to 0.01 µM; under setting [1], 0.00952 µM. The like results for `Cc1c[nH]c2ncnc(N3CCC(N)(CNc4ccccc4N4CCOCC4)C3)c12` (stereo not drawn) [Example 29, 1-(5-methyl-7H-pyrrolo[2,3-d]pyrimidin-4-yl)-3-{[(2-morpholin-4-ylphenyl)amino]methyl}pyrrolidin-3-amine] were, in that order, 0.0101 to 0.1 µM and 0.0101 µM.

These data come from patent publication US20080051419A1, “AMINE DERIVATIVES USEFUL AS ANTICANCER AGENTS” (PFIZER INC., priority 2006, published 2008).
